For 27 molecules, IC50 results are on record in patent US8440710B2, “HSL inhibitors useful in the treatment of diabetes” (Hoffmann-La Roche Inc., priority 2009, dated 2013).

This assay concerns the target T1, human HSL (Homo sapiens, UniProt Q05469).
T1 construct: generate a full length human HSL ORF with a 3′-His6 tag; made in house; host or cells: High 5 insect cells (baculovirus, pFast-BAC)
T1 sequence (Q05469 1-1076): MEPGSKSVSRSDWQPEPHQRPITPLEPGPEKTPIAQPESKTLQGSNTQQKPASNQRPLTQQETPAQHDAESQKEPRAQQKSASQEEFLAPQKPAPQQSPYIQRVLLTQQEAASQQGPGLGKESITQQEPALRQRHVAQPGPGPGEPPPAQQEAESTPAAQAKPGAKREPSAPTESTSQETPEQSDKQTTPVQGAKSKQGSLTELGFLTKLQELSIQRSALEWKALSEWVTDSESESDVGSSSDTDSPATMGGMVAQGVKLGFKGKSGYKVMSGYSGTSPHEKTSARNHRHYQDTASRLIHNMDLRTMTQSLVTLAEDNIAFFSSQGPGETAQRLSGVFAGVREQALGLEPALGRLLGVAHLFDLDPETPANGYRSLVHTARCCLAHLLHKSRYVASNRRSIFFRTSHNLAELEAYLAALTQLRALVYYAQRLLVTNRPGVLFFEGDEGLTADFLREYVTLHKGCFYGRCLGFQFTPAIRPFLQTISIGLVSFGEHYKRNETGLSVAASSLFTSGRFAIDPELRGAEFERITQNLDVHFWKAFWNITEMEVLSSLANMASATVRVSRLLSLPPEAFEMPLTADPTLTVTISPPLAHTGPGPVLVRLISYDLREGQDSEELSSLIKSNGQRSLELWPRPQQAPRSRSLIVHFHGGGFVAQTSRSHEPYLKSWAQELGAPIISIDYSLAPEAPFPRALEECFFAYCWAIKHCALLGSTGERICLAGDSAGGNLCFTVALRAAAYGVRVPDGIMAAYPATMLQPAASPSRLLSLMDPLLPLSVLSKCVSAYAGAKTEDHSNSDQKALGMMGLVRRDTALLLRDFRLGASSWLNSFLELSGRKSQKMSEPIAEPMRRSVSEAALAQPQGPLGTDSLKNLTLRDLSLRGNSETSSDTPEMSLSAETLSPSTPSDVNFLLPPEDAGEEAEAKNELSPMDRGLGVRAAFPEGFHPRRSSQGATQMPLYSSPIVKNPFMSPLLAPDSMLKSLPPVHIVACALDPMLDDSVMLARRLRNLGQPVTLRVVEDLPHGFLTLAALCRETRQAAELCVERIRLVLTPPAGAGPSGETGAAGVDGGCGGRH
The assay can be described thus: Human Hormone-Sensitive Lipase (HSL) enzyme inhibition assay (colorimetric, DMPT substrate). The format is biochemical. Particulars: human full length HSL-His6, 2,3-dimercapto-1-propanol tributyrate substrate, 37° C. 20 minutes, absorbance at 405 nm; read-out: HSL hum IC50. The procedure, abridged: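 Full-length human HSL with C-terminal His6, expressed in baculovirus-infected High 5 cells and Ni-NTA purified, was added (15 ug/ml stock) to 1.5 mM DMPT in 100 mM MOPS pH 7.2, 0.2 mg/ml fatty acid-free BSA containing compound. After 20 min at 37 °C, DTNB with SDS/Triton X-100 was added; A405 read after 15 min at RT.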
Consider `O=C1N(c2ccc(OC(F)(F)F)cc2)CC[C@]12CC[C@@H]([S+]([O-])c1ccccc1)CC2` (stereo partly drawn) [Example 51, (5α,8β)-8-Benzenesulfinyl-2-(4-trifluoromethoxy-phenyl)-2-aza-spiro[4.5]decan-1-one], for which the IC50 worked out at 0.02 µM.
The result for `O=C1N(c2ccc(OCC(F)(F)F)cc2)CC[C@]12CC[C@](O)(COCC(F)(F)F)CC2` [Example 232, (5α,8β)-8-Hydroxy-8-(2,2,2-trifluoro-ethoxymethyl)-2-[4-(2,2,2-trifluoro-ethoxy)-phenyl]-2-aza-spiro[4.5]decan-1-one] reads 0.29 µM; that for `CCCOC[C@]1(O)CC[C@@]2(CCN(c3ccc(OCC(F)(F)F)cc3)C2=O)CC1` [Example 235, (5α,8β)-8-Hydroxy-8-propoxymethyl-2-[4-(2,2,2-trifluoro-ethoxy)-phenyl]-2-aza-spiro[4.5]decan-1-one], 0.63 µM; that for `CC(C)[C@]1(O)CC[C@]2(CCN(c3ccc(O[C@H](C)C(F)(F)F)nc3)C2=O)CC1` [Example 150, (5α,8α)-8-Hydroxy-8-isopropyl-2-[6-((R)-2,2,2-trifluoro-1-methyl-ethoxy)-pyridin-3-yl]-2-aza-spiro[4.5]decan-1-one], 0.02 µM.
As for `CCCOC[C@]1(O)CC[C@]2(CCN(c3ccc(O[C@@H](C)C(F)(F)F)cc3)C2=O)CC1` [Example 269, (5α,8α)-8-Hydroxy-8-propoxymethyl-2-[4-((S)-2,2,2-trifluoro-1-methyl-ethoxy)-phenyl]-2-aza-spiro[4.5]decan-1-one], the concentration for half-maximal inhibition (IC50) came to 0.01 µM.
Take `CC[C@]1(O)CC[C@]2(CCN(c3ccc(O[C@H](C)C(F)(F)F)cc3)C2=O)CC1` [Example 165b, (5α,8α)-8-Ethyl-8-hydroxy-2-[4-((R)-2,2,2-trifluoro-1-methyl-ethoxy)-phenyl]-2-aza-spiro[4.5]decan-1-one]: the half-inhibitory concentration (IC50) came out at 0.03 µM.
Take `CCCc1ccc(N2CC[C@]3(CC[C@H](O)CC3)C2=O)cc1` [Example 37, (5α,8α)-8-Hydroxy-2-(4-propyl-phenyl)-2-aza-spiro[4.5]decan-1-one]: the half-inhibitory concentration (IC50) came out at 0.21 µM.
The result for `O=C1N(c2ccc(OC(F)(F)F)cc2)CC[C@]12CC[C@@](O)(C(F)(F)F)CC2` [Example 112, (5α,8α)-8-Hydroxy-2-(4-trifluoromethoxy-phenyl)-8-trifluoromethyl-2-aza-spiro[4.5]decan-1-one] reads 0.02 µM; that for `CC[C@]1(O)CC[C@]2(CCN(c3ccc(OCC(F)(F)F)nc3)C2=O)CC1` [Example 168, (5α,8α)-8-Ethyl-8-hydroxy-2-[6-(2,2,2-trifluoro-ethoxy)-pyridin-3-yl]-2-aza-spiro[4.5]decan-1-one], 0.07 µM; that for `CCOC[C@]1(O)CC[C@]2(CCN(c3ccc(O[C@@H](C)C(F)(F)F)nc3)C2=O)CC1` [Example 249, (5α,8α)-8-Ethoxymethyl-8-hydroxy-2-[6-((S)-2,2,2-trifluoro-1-methyl-ethoxy)-pyridin-3-yl]-2-aza-spiro[4.5]decan-1-one], 0.02 µM.
The same measure for `CC[C@]1(O)CC[C@@]2(CCN(c3ccc(CC(F)(F)F)cc3)C2=O)CC1` [Example 80, (5α,8β)-8-Ethyl-8-hydroxy-2-[4-(2,2,2-trifluoro-ethyl)-phenyl]-2-aza-spiro[4.5]decan-1-one]: 0.91 µM; for `COCC[C@]1(OC)CC[C@]2(CCN(c3ccc(OC(F)(F)F)cc3)C2=O)CC1` [Example 120, (5α,8α)-8-Methoxy-8-(2-methoxy-ethyl)-2-(4-trifluoromethoxy-phenyl)-2-aza-spiro[4.5]decan-1-one]: 0.1 µM.
`CCC[C@]1(O)CC[C@]2(CCN(c3ccc([C@@H](O)C(F)(F)F)cc3)C2=O)CC1` [Example 133b, (5α,8α)-8-Hydroxy-8-propyl-2-[4-((R)-2,2,2-trifluoro-1-hydroxy-ethyl)-phenyl]-2-aza-spiro[4.5]decan-1-one]: the IC50 was 0.03 µM.
The result for `O=C(NCc1ccc(F)cc1)O[C@H]1CC[C@@]2(CCN(c3ccc(OC(F)(F)F)cc3)C2=O)CC1` [Example 15, (4-Fluoro-benzyl)-carbamic acid [(5α,8β)-1-oxo-2-(4-trifluoromethoxy-phenyl)-2-aza-spiro[4.5]dec-8-yl]ester] reads 0.07 µM; that for `CC(C)SC[C@]1(O)CC[C@]2(CCN(c3ccc(O[C@H](C)C(F)(F)F)nc3)C2=O)CC1` [Example 321, (5α,8α)-8-Hydroxy-8-isopropylsulfanylmethyl-2-[6-((R)-2,2,2-trifluoro-1-methyl-ethoxy)-pyridin-3-yl]-2-aza-spiro[4.5]decan-1-one], 0.01 µM.
The result for `CC(Oc1ccc(N2CC[C@]3(CC[C@@](O)(C(F)(F)F)CC3)C2=O)cc1)C(F)(F)F` (stereo partly drawn) [Example 177, (5α,8α)-8-Hydroxy-8-trifluoromethyl-2-[4-(2,2,2-trifluoro-1-methyl-ethoxy)-phenyl]-2-aza-spiro[4.5]decan-1-one] reads 0.03 µM.
For `CS(=O)(=O)C[C@]1(O)CC[C@]2(CCN(c3ccc(OCC(F)(F)F)cc3)C2=O)CC1` [Example 304, (5α,8α)-8-Hydroxy-8-methanesulfonylmethyl-2-[4-(2,2,2-trifluoro-ethoxy)-phenyl]-2-aza-spiro[4.5]decan-1-one], the IC50 was 0.33 µM.
For `CC(O)C1CCC2(CC1)CCN(c1ccc(C(C)(C)C)cc1)C2=O` (stereo not drawn) [Example 358, (5α,8α)-2-(4-tert-Butyl-phenyl)-8-(1-hydroxy-ethyl)-2-aza-spiro[4.5]decan-1-one], the concentration for half-maximal inhibition (IC50) worked out at 0.05 µM.
Regarding `CCC[C@]1(O)CC[C@]2(CCN(c3ccc(OCC(F)(F)F)nc3)C2=O)CC1` [Example 167, (5α,8α)-8-Hydroxy-8-propyl-2-[6-(2,2,2-trifluoro-ethoxy)-pyridin-3-yl]-2-aza-spiro[4.5]decan-1-one], the IC50 was 0.04 µM.
The result for `COC[C@]1(O)CC[C@]2(CCN(c3ccc(O[C@@H](C)C(F)(F)F)nc3)C2=O)CC1` [Example 153, (5α,8α)-8-Hydroxy-8-methoxymethyl-2-[6-((S)-2,2,2-trifluoro-1-methyl-ethoxy)-pyridin-3-yl]-2-aza-spiro[4.5]decan-1-one] reads 0.05 µM; that for `CCC[C@]1(O)CC[C@]2(CCN(c3ccc(C(O)C(C)(F)F)cc3)C2=O)CC1` (stereo partly drawn) [Example 192, (5α,8α)-2-(4-(2,2-difluoro-1-hydroxypropyl)phenyl)-8-hydroxy-8-propyl-2-aza-spiro[4.5]decan-1-one], 0.05 µM; that for `CC(C)S(=O)(=O)C[C@]1(O)CC[C@]2(CCN(c3ccc(O[C@@H](C)C(F)(F)F)nc3)C2=O)CC1` [Example 323, (5α,8α)-8-Hydroxy-8-(propane-2-sulfonylmethyl)-2-[6-((S)-2,2,2-trifluoro-1-methyl-ethoxy)-pyridin-3-yl]-2-aza-spiro[4.5]decan-1-one], 0.01 µM.
In the case of `O=C1N(c2ccc(C3CC(F)(F)C3)cc2)CC[C@]12CC[C@](O)(C(F)(F)F)CC2` [Example 341, (5α,8β)-2-[4-(3,3-Difluoro-cyclobutyl)-phenyl]-8-hydroxy-8-trifluoromethyl-2-aza-spiro[4.5]decan-1-one], the half-maximal inhibitory concentration (IC50) turned out to be 1.35 µM.
In the case of `CCC[C@]1(O)CC[C@]2(CCN(c3ccc([C@H](O)C(F)(F)F)cc3)C2=O)CC1` [Example 133a, (5α,8α)-8-Hydroxy-8-propyl-2-[4-((S)-2,2,2-trifluoro-1-hydroxy-ethyl)-phenyl]-2-aza-spiro[4.5]decan-1-one], the half-inhibitory concentration (IC50) worked out at 0.05 µM.
The result for `CCCOC[C@]1(O)CC[C@]2(CCN(c3ccc(CC)cc3)C2=O)CC1` [Example 226, (5α,8α)-2-(4-Ethyl-phenyl)-8-hydroxy-8-propoxymethyl-2-aza-spiro[4.5]decan-1-one] reads 0.02 µM.
The result for `O=C1N(c2ccc(OC(F)(F)F)cc2)CC[C@]12CC[C@@H](O)CC2` [Example 1, (5α,8β)-8-Hydroxy-2-(4-trifluoromethoxy-phenyl)-2-aza-spiro[4.5]decan-1-one] reads 0.47 µM; that for `COC[C@]1(O)CC[C@]2(CCN(c3ccc(OC(C)C)cc3)C2=O)CC1` [Example 210, (5α,8α)-8-hydroxy-2-(4-isopropoxyphenyl)-8-(methoxymethyl)-2-aza-spiro[4.5]decan-1-one], 0.05 µM.

Broadly, the IC50 is the concentration that gives 50% inhibition.
